Values after ≈ are worked out from the molar mass of the structure shown. Like-named read-outs stand apart in the source and are kept apart here.
What was measured:
ACHN = assay: NCI single-dose growth inhibition screen; type: cell-based; details: Homo sapiens; Renal Cancer ACHN; single dose 10^−5 M
CAKI-1 = assay: NCI single-dose growth inhibition screen; type: cell-based; details: Homo sapiens; Renal Cancer CAKI-1; single dose 10^−5 M
MALME-3 M = assay: NCI single-dose growth inhibition screen; type: cell-based; details: Homo sapiens; Melanoma MALME-3 M; single dose 10^−5 M
OVCAR-4 = assay: NCI single-dose growth inhibition screen; type: cell-based; details: Homo sapiens; Ovarian Cancer OVCAR-4; single dose 10^−5 M
MDA-MB-468 = assay: NCI single-dose growth inhibition screen; type: cell-based; details: Homo sapiens; Breast Cancer MDA-MB-468; single dose 10^−5 M
SK-MEL-5 = assay: NCI single-dose growth inhibition screen; type: cell-based, human; details: single dose 10^−5 M; for inhibition at 10 µM: Homo sapiens, SK-MEL-5, Melanoma SK-MEL-5
topoisomerase IIβ = molecular target: T1, topoisomerase IIβ (Homo sapiens, UniProt Q02880); assay: Topoisomerase II inhibition, human DNA topoisomerase Elisa kit; type: biochemical; details: ± SEM; read-out: Topoisomerase II IC50 µM ± SEM
T1 construct: purchased
Method: Two folds of serial dilution was accomplished after standards and the tested compounds were dissolved in sample diluent. Horseradish peroxidase (HRP-avidin) and biotin-conjugated antibody were diluted 10 times each. Each well received 100 µL of each concentration of the standard or test chemicals, which were then added and incubated at 37 °C for 60 min. […] The microtiter plate was rinsed three times and given room to aspirate. After that, the plate was incubated at 37 °C for 60 min with 100 µL of HRP-avidin solution added to each well. After that, the plate was aspirated and cleaned 5 times. Each well received 90 µL of TMB substrate, and the plate was incubated for 30 min. at 37 °C in a light-protected environment. Finally, stop solution (50 µL) was loaded, and within 5 min, the absorbance at 450 nm was measured spectrophotometrically.
Topoisomerase enzyme assay
Topoisomerase I and II inhibitory activity […]
topoisomerase IIβ inhibitory activity utilizing the human DNA topoisomerase Elisa kit.
Standards and the tested compound were dissolved in sample diluent and 2 folds serial dilution was achieved. Biotin-conjugated antibody and avidin conjugated Horseradish Peroxidase (HRP-avidin) were diluted to 10 folds. 100 μL of each concentration of standard or test compound were added to each well. Incubate at 37 °C for 1 h. The liquid in each well was removed. 10 0 μL of Biotin-conjugated antibody solution was added to each well followed by incubation for 1 h at 37 °C. The microtiter plate was allowed to aspirate and washed 3 times. 100 μL of avidin conjugated Horseradish Peroxidase (HRP -avidin) solution was added to each well and the plate was incubated for 1 h at 37 °C. The plate was aspirated and washed 5 times. 90 μL of TMB substrate were added to each well and the plate was incubated for 30 min at 37 °C and protected from light. 50 μL stop so lution was added. The absorbance was measured spectrophotometrically within 5 min at 450 nm .

TK-10 = assay: NCI single-dose growth inhibition screen; type: cell-based; details: Homo sapiens; Renal Cancer TK-10; single dose 10^−5 M
NCI-H23 = assay: NCI single-dose growth inhibition screen; type: cell-based; details: Homo sapiens; Non-Small Cell Lung Cancer NCI-H23; single dose 10^−5 M
MDA-MB231 = assay: NCI single-dose growth inhibition screen; type: cell-based; details: Homo sapiens, MDA-MB-231; Breast Cancer MDA-MB231; single dose 10^−5 M
SK-MEL-2 = assay: NCI single-dose growth inhibition screen; type: cell-based; details: Homo sapiens; Melanoma SK-MEL-2; single dose 10^−5 M
HCT-116 = assay: NCI single-dose growth inhibition screen; type: cell-based; details: Homo sapiens; Colon Cancer HCT-116; single dose 10^−5 M
SN12C = assay: NCI single-dose growth inhibition screen; type: cell-based; details: Homo sapiens; Renal Cancer SN12C; single dose 10^−5 M
[1] = tested on: K. pneumoniae ATCC 10,031; assay: Antibacterial screening, agar cup diffusion method; type: cell-based; details: read-out: Minimum inhibitory concentrations (MIC, µM) K. pneumoniae ATCC 10,031
Method: (§1) Anti-bacterial activity of the recently synthesized compounds 3a-k was evaluated at AUMC (Assiut University Mycological Centre), Assiut, Egypt. Assays were done against Gram-negative strains of K. pneumoniae (ATCC 100310, E. coli (ATCC 25922), Pseudomonas aeruginosa (ATCC 27853) and the Gram-positive S. aureus (ATCC 6538) strain utilizing standard agar cup diffusion method. The isolates from the four bacterial species examined were kept in TSB (Trypticase Soya Broth, Becton and Dickinson) with 10% glycerol at -70 °C and then subcultured on TSA (Trypticase Soya Agar, Becton and Dickinson) and TSB for 24 h at 37 °C former to inoculation. Bacterial isolates were then plated on sterile petri plates with 1 × 10^8 CFU/mL (0.5 McFarland turbidity) and 20 mL of Mueller Hinton Agar media (Oxoid) was then loaded. To ensure that the microorganisms were evenly dispersed, the plates were gently rotated before being left to harden on a level surface. Four equally spaced spherical-shaped wells (10 mm diameter) were painstakingly drilled using a sterilized cork bore after media solidification. All tested compounds under test underwent two-fold serial dilutions in a sequential manner. Three replications of 100 µL of each concentration were added to a well using a micropipette. Plates were then incubated for 24-hour at 37 °C. The average of the inhibition zones was then calculated. To determine the MICs, the natural logarithm of each diluted test substance’s concentration was plotted against the average area of the related inhibition zone. Following that, a regression line was created and the intercept on the ‘ln concentration” axis was determined, and the antilogarithm was calculated to indicate the MIC value[34],[63].

E. coli ATCC 25,922 = assay: Antibacterial screening, agar cup diffusion method; type: cell-based; details: read-out: Minimum inhibitory concentrations (MIC, µM) E. coli ATCC 25,922
Method: as §1

MDA-MB-435 = assay: NCI single-dose growth inhibition screen; type: cell-based; details: Homo sapiens; Melanoma MDA-MB-435; single dose 10^−5 M
786-0 = assay: NCI single-dose growth inhibition screen; type: cell-based; details: Homo sapiens; Renal Cancer 786-0; single dose 10^−5 M
SR = assay: NCI single-dose growth inhibition screen; type: cell-based; details: Homo sapiens; Leukemia SR; single dose 10^−5 M
SK-MEL-28 = assay: NCI single-dose growth inhibition screen; type: cell-based; details: Homo sapiens; Melanoma SK-MEL-28; single dose 10^−5 M
SF-268 = assay: NCI single-dose growth inhibition screen; type: cell-based; details: Homo sapiens; CNS Cancer SF-268; single dose 10^−5 M
RXF 393 = assay: NCI single-dose growth inhibition screen; type: cell-based; details: Homo sapiens; Renal Cancer RXF 393; single dose 10^−5 M
CCRF-CEM = assay: NCI single-dose growth inhibition screen; type: cell-based; details: Homo sapiens; Leukemia CCRF-CEM; single dose 10^−5 M
[2] = Klebsiella pneumoniae, ATCC10, Gram –ve strain
[3] = Escherichia coli, ATCC25, Gram –ve strain

T1 sequence (Q02880 whole entry): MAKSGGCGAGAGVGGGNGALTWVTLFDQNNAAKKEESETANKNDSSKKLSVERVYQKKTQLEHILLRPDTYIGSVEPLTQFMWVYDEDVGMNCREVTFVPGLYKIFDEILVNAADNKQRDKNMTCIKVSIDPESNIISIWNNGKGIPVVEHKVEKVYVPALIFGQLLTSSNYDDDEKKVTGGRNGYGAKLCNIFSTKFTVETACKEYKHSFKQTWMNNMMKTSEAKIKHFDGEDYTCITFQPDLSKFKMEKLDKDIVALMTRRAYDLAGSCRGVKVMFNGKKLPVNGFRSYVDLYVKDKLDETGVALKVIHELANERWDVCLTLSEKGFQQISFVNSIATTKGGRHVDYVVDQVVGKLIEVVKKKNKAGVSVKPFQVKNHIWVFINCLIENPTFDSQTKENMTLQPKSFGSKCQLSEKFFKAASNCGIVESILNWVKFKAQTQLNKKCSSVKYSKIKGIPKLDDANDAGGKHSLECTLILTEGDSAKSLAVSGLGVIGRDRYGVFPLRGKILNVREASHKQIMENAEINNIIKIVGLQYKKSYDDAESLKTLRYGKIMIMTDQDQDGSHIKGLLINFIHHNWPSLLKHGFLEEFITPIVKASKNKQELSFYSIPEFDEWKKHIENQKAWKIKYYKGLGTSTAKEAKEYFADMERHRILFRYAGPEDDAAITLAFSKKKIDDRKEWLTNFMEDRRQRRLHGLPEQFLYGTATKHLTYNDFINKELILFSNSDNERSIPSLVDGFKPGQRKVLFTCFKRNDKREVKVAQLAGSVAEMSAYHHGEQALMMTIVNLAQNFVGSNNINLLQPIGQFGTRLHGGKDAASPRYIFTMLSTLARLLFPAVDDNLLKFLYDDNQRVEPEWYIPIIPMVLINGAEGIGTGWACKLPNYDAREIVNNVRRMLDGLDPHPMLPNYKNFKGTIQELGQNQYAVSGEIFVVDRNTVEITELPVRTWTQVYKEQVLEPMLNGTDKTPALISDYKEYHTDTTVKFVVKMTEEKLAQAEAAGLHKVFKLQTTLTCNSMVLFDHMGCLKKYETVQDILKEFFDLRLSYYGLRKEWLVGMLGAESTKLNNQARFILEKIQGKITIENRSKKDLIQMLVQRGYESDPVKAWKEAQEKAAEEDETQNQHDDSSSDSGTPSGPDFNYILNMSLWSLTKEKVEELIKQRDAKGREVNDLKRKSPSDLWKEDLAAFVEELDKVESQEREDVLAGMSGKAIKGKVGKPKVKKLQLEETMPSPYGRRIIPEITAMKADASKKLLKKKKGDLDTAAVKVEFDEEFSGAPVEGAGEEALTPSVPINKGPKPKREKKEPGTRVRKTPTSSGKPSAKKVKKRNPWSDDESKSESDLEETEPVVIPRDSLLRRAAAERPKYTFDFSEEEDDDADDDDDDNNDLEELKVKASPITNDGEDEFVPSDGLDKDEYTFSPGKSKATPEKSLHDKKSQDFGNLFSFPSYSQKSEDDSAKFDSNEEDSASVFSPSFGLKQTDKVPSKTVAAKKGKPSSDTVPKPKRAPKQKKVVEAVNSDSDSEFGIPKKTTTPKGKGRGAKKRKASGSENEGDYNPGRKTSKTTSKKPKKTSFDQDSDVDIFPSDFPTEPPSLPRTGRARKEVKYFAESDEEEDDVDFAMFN

O=C(O)c1cn(C2CC2)c2cc(N3CCN(C(=O)CCCN4C(=O)CSC4=O)CC3)c(F)cc2c1=O [3 L, 1-Cyclopropyl-7-(4-(4-(2,4-dioxothiazolidin-3-yl)butanoyl)piperazin-1-yl)-6-fluoro-4-oxo-1,4-dihydroquinoline-3-carboxylic acid]
inhibition at 10 µM (ACHN): 0.6% | inhibition at 10 µM (CAKI-1): 22.7% | inhibition at 10 µM (MALME-3 M): < 0% | melting point: 230 °C | inhibition at 10 µM (OVCAR-4): 19.2% | inhibition at 10 µM (MDA-MB-468): 2.1% | inhibition at 10 µM (SK-MEL-5): < 0% | IC50 (topoisomerase IIβ): 14.3 ± 0.78 µM | inhibition at 10 µM (TK-10): 28.7% | inhibition at 10 µM (NCI-H23): 5.7% | inhibition at 10 µM (MDA-MB231): 10.1% | inhibition at 10 µM (SK-MEL-2): < 0% | inhibition at 10 µM (HCT-116): < 0% | inhibition at 10 µM (SN12C): 14.6% | MIC [1, 2]: > 20 µM | MIC (E. coli ATCC 25,922; [3]): > 20 µM | inhibition at 10 µM (MDA-MB-435): < 0% | inhibition at 10 µM (786-0): 4.8% | inhibition at 10 µM (SR): < 0% | inhibition at 10 µM (SK-MEL-28): 49.5% | inhibition at 10 µM (SF-268): 15.1% | inhibition at 10 µM (RXF 393): 30.7%

O=C(O)c1cn(C2CC2)c2cc(N3CCN(C(=O)CCCN4C(=O)SC(=Cc5ccccc5)C4=O)CC3)c(F)cc2c1=O [3a, 7-[4-[4-[5-benzylidene-2,4-dioxo-thiazolidin-3-yl]butanoyl]piperazin-1-yl]-1-cyclopropyl-6-fluoro-4-oxo-quinoline-3-carboxylic acid]
inhibition at 10 µM (ACHN): 14.5% | inhibition at 10 µM (CAKI-1): 10.9% | inhibition at 10 µM (MALME-3 M): 30.4% | melting point: 238 °C | inhibition at 10 µM (OVCAR-4): 2.5% | inhibition at 10 µM (MDA-MB-468): 12.9% | inhibition at 10 µM (SK-MEL-5): 24.6% | IC50 (topoisomerase IIβ): 35.6 ± 1.94 µM | inhibition at 10 µM (TK-10): < 0% | inhibition at 10 µM (NCI-H23): 10.2% | inhibition at 10 µM (MDA-MB231): 25.2% | inhibition at 10 µM (CCRF-CEM): 9.8% | inhibition at 10 µM (SK-MEL-2): 10.1% | inhibition at 10 µM (HCT-116): 19.3% | inhibition at 10 µM (SN12C): 2.6% | MIC ([1]; Gram –ve strain): 0.22 µM (≈ 0.133 µg/mL) | MIC [1, 2]: 0.13 to 0.8 µM (≈ 0.0786 to 0.484 µg/mL) | MIC (E. coli ATCC 25,922; [3]): 0.2 µM (≈ 0.121 µg/mL) | inhibition at 10 µM (MDA-MB-435): 7.8% | inhibition at 10 µM (786-0): 21.2% | inhibition at 10 µM (SR): 29.9% | inhibition at 10 µM (SK-MEL-28): 9% | inhibition at 10 µM (SF-268): 12.4% | inhibition at 10 µM (RXF 393): < 0%

O=C(O)c1cn(C2CC2)c2cc(N3CCN(C(=O)CCCN4C(=O)S/C(=C\c5ccc(F)cc5)C4=O)CC3)c(F)cc2c1=O [3i]
inhibition at 10 µM (ACHN): 4.6% | inhibition at 10 µM (CAKI-1): 4.9% | inhibition at 10 µM (MALME-3 M): 14.8% | inhibition at 10 µM (OVCAR-4): 0.5% | inhibition at 10 µM (MDA-MB-468): 7.6% | inhibition at 10 µM (SK-MEL-5): 5.5% | IC50 (topoisomerase IIβ): 15 ± 0.81 µM | inhibition at 10 µM (TK-10): 4.7% | inhibition at 10 µM (NCI-H23): 6.5% | inhibition at 10 µM (MDA-MB231): 26.4% | inhibition at 10 µM (CCRF-CEM): 4.2% | inhibition at 10 µM (SK-MEL-2): < 0% | inhibition at 10 µM (HCT-116): 4.5% | inhibition at 10 µM (SN12C): 2.2% | MIC [1, 2]: > 20 µM | MIC (E. coli ATCC 25,922; [3]): 0.54 µM (≈ 0.336 µg/mL) | inhibition at 10 µM (MDA-MB-435): 1.6% | inhibition at 10 µM (786-0): 18.2% | inhibition at 10 µM (SR): 3.6% | inhibition at 10 µM (SK-MEL-28): 1.5% | inhibition at 10 µM (SF-268): 3.1% | inhibition at 10 µM (RXF 393): < 0%

O=C(O)c1cn(C2CC2)c2cc(N3CCN(C(=O)CCCN4C(=O)SC(=Cc5cccc6ccccc56)C4=O)CC3)c(F)cc2c1=O [3j, 1-cyclopropyl-6-fluoro-7-[4-[4-[5-(1-naphthylmethylene)-2,4-dioxo-thiazolidin-3-yl]butanoyl]piperazin-1-yl]-4-oxo-quinoline-3-carboxylic acid]
inhibition at 10 µM (ACHN): 11.5% | inhibition at 10 µM (CAKI-1): 18% | inhibition at 10 µM (MALME-3 M): 13.1% | melting point: 219 °C | inhibition at 10 µM (OVCAR-4): 16.4% | inhibition at 10 µM (MDA-MB-468): 4.7% | inhibition at 10 µM (SK-MEL-5): 46.1% | Growth Inhibition (%) (SK-MEL-5; Melanoma SK-MEL-5): 46.1% | IC50 (topoisomerase IIβ): 39.8 ± 2.17 µM | inhibition at 10 µM (TK-10): < 0% | inhibition at 10 µM (NCI-H23): 13.1% | inhibition at 10 µM (MDA-MB231): 25.2% | inhibition at 10 µM (CCRF-CEM): < 0% | inhibition at 10 µM (SK-MEL-2): < 0% | inhibition at 10 µM (HCT-116): 10.6% | inhibition at 10 µM (SN12C): 24.1% | MIC [1, 2]: > 20 µM | MIC (E. coli ATCC 25,922; [3]): 1.94 to 2.6 µM (≈ 1.27 to 1.7 µg/mL) | MIC (E. coli ATCC 25,922; Gram –ve strain): 2.60 µM (≈ 1.7 µg/mL) | inhibition at 10 µM (MDA-MB-435): 12.8% | inhibition at 10 µM (786-0): 18.5% | inhibition at 10 µM (SR): 14.1% | inhibition at 10 µM (SK-MEL-28): 4.5% | inhibition at 10 µM (SF-268): 29.1% | inhibition at 10 µM (RXF 393): 11.2%

Reference: article PMC11480511 (Scientific Reports, 2024)
